ChEMBL document CHEMBL5252584, “Design, synthesis and anti-Chikungunya virus activity of lomerizine derivatives” (Bioorg Med Chem Lett, 2023)

Experiments:
[1] = Selectivity index, ratio of CC50 for cytotoxicity against human Huh-7 cells to IC50 for antiviral activity against CHIKV infected in human Huh-7 cells; format: toxicity, cell-based; settings: read-out: Ratio CC50/IC50
[2] = system: Chikungunya virus; assay: Antiviral activity against CHIKV infected in human Huh-7 cells assessed as inhibition of viral growth at 10 uM incubated for 12 hrs relative to control; format: functional; set-up: scale not given: the % may be the effect or the level left
[3] = system: Chikungunya virus; assay: Antiviral activity against CHIKV infected in human Huh-7 cells assessed as inhibition of viral growth incubated for 12 hrs; format: functional, organism-based; settings: Huh-7, 12 h
[4] = system: Chikungunya virus; assay: Antiviral activity against CHIKV infected in human Huh-7 cells assessed as inhibition of viral growth at 2.5 uM incubated for 12 hrs relative to control; format: functional
[5] = Cytotoxicity against human Huh-7 cells assessed as reduction in cell viability by CCK8 assay relative to control; format: toxicity, cell-based
[6] = system: Huh-7; assay: Cytotoxicity against human Huh-7 cells assessed as reduction in cell viability at 5 uM by CCK8 assay relative to control; format: toxicity, cell-based; settings: huh-7, 5 µM
[7] = system: Chikungunya virus; assay: Antiviral activity against CHIKV infected in human Huh-7 cells assessed as inhibition of viral growth at 5 uM incubated for 12 hrs relative to control; format: functional

Row | SMILES | selectivity ratio [1] | Activity [2] [%] | IC50 [3] [µM] | inhibition at 2.5 µM [4] [%] | CC50 [5] [µM] | cell viability [6] [%] | inhibition at 5 µM [7] [%]
1 | O=C(/C=C/c1cccnc1)N1CCN(C(c2ccc(F)cc2)c2ccc(F)cc2)CC1 | 13 | 76.5 | 1.61 | 53.8 | 20.9 | > 80 | 54.4
2 | O=C(/C=C/c1ccncc1)N1CCN(C(c2ccc(F)cc2)c2ccc(F)cc2)CC1 | 13.3 | 95.3 | 2.35 | 58.1 | 31.3 | > 80 | 90.7
3 | Cc1ccc(/C=C/C(=O)N2CCN(C(c3ccccc3)c3ccc(Cl)cc3)CC2)cc1 (stereo not given) |  | 56.3 |  | 13.4 |  | > 80 | 29.7
4 | O=C(/C=C/c1ccc(F)cc1)N1CCN(C(c2ccc(F)cc2)c2ccc(F)cc2)CC1 |  | 55.2 |  | 9.7 |  | > 80 | 19.6
5 | O=C(/C=C/c1ccccc1F)N1CCN(C(c2ccccc2)c2ccccc2)CC1 | 7.6 | 77.6 | 4.5 | 17.9 | 34.2 | > 80 | 62.1
6 | Cc1ccc(/C=C/C(=O)N2CCN(C(c3ccc(F)cc3)c3ccc(F)cc3)CC2)cc1 |  | 84.3 |  | 21.3 |  | > 80 | 32.8
7 | O=C(/C=C/c1ccc2c(c1)OCO2)N1CCN(C(c2ccc(F)cc2)c2ccc(F)cc2)CC1 | 66 | 97.4 | 0.45 | 86.9 | 29.7 | > 80 | 93.1
8 | O=C(/C=C/c1cccc(F)c1)N1CCN(C(c2ccc(F)cc2)c2ccc(F)cc2)CC1 | 11.1 | 85.8 | 2.06 | 59.6 | 22.9 | > 80 | 78.9
9 | O=c1cc(-c2ccccc2)oc2cc(O)c(O)c(O)c12 [BAICALEIN] | > 6 |  | 16.9 |  | > 100 |  | 
10 | O=C(/C=C/c1ccc(O)c(O)c1)N1CCN(C(c2ccc(F)cc2)c2ccc(F)cc2)CC1 |  | 96.3 |  | 20.1 |  | > 80 | 43.9
11 | O=C(/C=C/c1ccc2c(c1)OCO2)N1CCN(C(c2ccccc2)c2ccc(Cl)cc2)CC1 (stereo not given) | 6.5 | 86.5 | 4.83 | 13.2 | 31.4 | > 80 | 52.3
12 | O=C(/C=C/c1ccccc1F)N1CCN(C(c2ccc(F)cc2)c2ccc(F)cc2)CC1 | 51.9 | 95.8 | 0.61 | 74.2 | 31.7 | > 80 | 92.8
13 | O=C(/C=C/c1ccc(O)c(O)c1)N1CCN(C(c2ccccc2)c2ccc(Cl)cc2)CC1 (stereo not given) |  | 74.4 |  | 20.2 |  | > 80 | 34.7
14 | COc1ccc(CN2CCN(C(c3ccc(F)cc3)c3ccc(F)cc3)CC2)c(OC)c1OC [LOMERIZINE] | > 24.9 |  | 4.02 |  | > 100 |  | 
